Series [1] relates to Langat virus (LGTV). It counts as biochemical. The settings on record: 2 h.
In series [2] the test system is SARS-CoV-2. Nature of the series: SARS-CoV-2 virus inhibition assay (plaque assay). To be noted: SARS-CoV-2 (1×10^3) exposed 1 h at 37° C., then Vero cells; read-out: concentration for 50% reduction of PFU. Format: cell-based, Severe Acute Respiratory Syndrome Coronavirus 2.
Series [3] relates to Influenza A virus (H1N1/CA09pdm). Nature of the series: Influenza A virus inhibition assay (plaque assay). It counts as cell-based. To be noted: Influenza A virus (1×10^3) pre-treated 1 h at 37° C.; read-out: concentration for 50% reduction of influenza A PFU.
Series [4] can be described thus: Carboxyfluorescein (CF) release assay. It counts as biochemical. The procedure: Liposomes were prepared by thin film hydration, followed by extrusion^19. Stock solutions of the lipids 1-palmitoyl-2-oleoyl-sn-glycero3-phosphatidylcholine (POPC), 1-palmitoyl-2-oleoyl-sn-glycero-3-phosphoL-serine (POPS) and cholesterol (Chol) were mixed at molar ratio 95:0:5, 65:30:5, 70:0:30, 91:1:8 and 81:11:8. The solvent was slowly evaporated via nitrogen stream, then the vials were dried in a vacuum desiccator overnight. Dry films were hydrated by addition of 1 mL 5(6)-carboxyfluorescein solution. The CF solution, presenting self-quenching concentration of CF, was prepared with 50 mM CF dissolved in 10 mM PB buffer and 90 mM NaCl, followed by pH adjustment. CF solution was dispensed on the lipid cake and incubated for 10 min under gentle shaking (50 min-1 on orbital shaker), followed by 1 min vortexing. The liposomes were extruded 21 times with a mini extruder (Avanti Polar Lipids, Inc.), through a 0.1 um membrane (Nucleapore track-etched hydrophilic membrane). The lipids were purified by gel filtration through a PD Mini Trap G-25 column by elution in PB buffer (10 mM).
To study peptide efficacy on liposome membrane disruption, the liposome fluorescence was monitored upon peptide addition by microplate reader (Tecan Infinite M1000 Pro, λex=485 nm, λem=520 nm). Liposomes were diluted to a final concentration of 25 μM with 10 mM PB buffer and incubated with PLNC8 α, PLNC8 β and PLNC8 α/β at concentration of 10^−5-10^2 μM in a 96 well plate at a final volume of 200 μL. Due to the self-quenching concentration of carboxyfluorescein (CF) inside the liposomes, any fluorescence of the liposome-peptide system could be attributed to the liposome membrane disruption. Fluorescence was monitored prior to peptide addition (F0), and continuatively for 30 min. Total CF release (FT) was achieved through addition of 1% Triton X-100. Instantaneous CF release (%) was calculated through the formula 100×(F−F0)/(FT−F0), where F is the instantaneous fluorescence.

In series [5] the test system is Kunjin virus (KUNV). Nature of the series: Flavivirus inhibition assay, crystal violet-based plaque assay (Vero cells). Format: cell-based. The settings on record: for reduction of viral load: L- or D-PLNC8 αβ (1:1).
Series [6] relates to human cells. The settings on record: previously shown (ref. 16); cited from earlier work.
Series [7] concerns Kunjin virus (KUNV). Nature of the series: Peptide treatment of KUNV-infected A549 cells (viral mRNA, extracellular virions). The settings on record: A549 infected 1 h, then 10 μM, 48 h; cell culture media.
The subject of series [8] is Langat virus (LGTV). Format: cell-based.

Where no end group is shown, it is not given here.

The source of these data is patent US20240374680A1, “PHARMACEUTICAL COMPOSITION FOR TREATMENT OF VIRAL INFECTIONS” (Virenc AB, priority 2021, published 2024).

For “SVPTSVYTLGIKILWSAYKHRKTIEKSFNKGFYH, SEQ ID NO:1 [D-PLNC8 β]”, in series [1], the “permeabilization of the viral envelope (Sytox Green)” value was “permeabilized”. In addition, the values for the IC50 in series [2] and in series [3] were 1400 nM and 19000 nM, respectively.
Turning to Plantaricin NC8 (PLNC8) αβ [PLNC8 αβ], the “susceptibility of liposomes (CF release)” value in series [4] (POPC:POPS:Chol (70:0:30), mimicking a eukaryotic plasma membrane) is “resilient”; in series [4] (POPC:POPS:Chol (81:11:8), mimicking a eukaryotic ER membrane), “very susceptible”; in series [4] (POPC:POPS:Chol (91:1:8)) it was “more susceptible”. Also, the “reduction of viral load” value was 80% in series [5] (0.1 μM, KUNV MOI 0.1, 0.01, 0.001, 1 h) and 95% in series [5] (1 μM, KUNV MOI 0.1, 0.01, 0.001, 1 h). For the same substance, in series [5] (≥10 μM, KUNV MOI 0.1, 0.01, 0.001, 1 h), the elimination of virions result is reported as “completely eliminates all virions”. Further, the “cytotoxicity towards human cells” value in series [6] was “no cytotoxicity towards human cells”. Besides, the “reduction of extracellular virion load” value in series [7] is 70-80%.
Consider “PLNC8 β: peptide of SEQ ID NO:1; statement covers L- and D-enantiomers (FIG. 7) (SVPTSVYTLGIKILWSAYKHRKTIEKSFNKGFYH; also: L- or D-enantiomer covered; listed as Lactobacillus plantarum)”, for which the “efficiency at eliminating KUNV, single peptides compared” value in series [5] (20 μM, L- and D-enantiomers (FIG. 7)) is recorded as “more efficient than PLNC8 α at eliminating KUNV”.
As for “SVPTSVYTLGIKILWSAYKHRKTIEKSFNKGFYH [L-PLNC8 β]”, in series [1], the “permeabilization of the viral envelope (Sytox Green)” value was “permeabilization of LGTV”. For the same substance, the “decrease of viral load” value in series [8] is given as greater than 99%. Besides, the values for the IC50 in series [2] and in series [3] were 900 to 1000 nM and greater than 20000 nM, respectively.
